Test results from patent US20240425523A1, “Compounds for the Degradation of EGFR Kinase” (Beigene Switzerland GMBH, priority 2023, published 2024).

Assays:
Assay type in all cases: cell-based
[1] = molecular target: T1, EGFR-L858R/C797S (H1975-clone #8 cells) (Homo sapiens, UniProt P00533, C797S/L858R); assay: Cell degradation of EGFR, HTRF assay, H1975-clone#8 (L858R/C797S) cells; conditions: 16 h treatment; for DC50: EGFR degradation; for Dmax: maximum percentage of degradation
T1 construct: expressed in transfected cells; host or cells: H1975 (endogenous EGFR knocked out, clone #8)

[2] = molecular target: p-EGFR Del19/C797S (H1975-clone #23 cells) (Homo sapiens, UniProt P00533); assay: Cell p-EGFR inhibition assay, HTRF, H1975-clone#23 (DEL19/C797S) cells; conditions: 16 h treatment; for Imax (%): maximum percentage of pEGFR inhibition; for IC50: pEGFR inhibition
In short: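 Phospho-EGFR read by overnight HTRF on lysates, normalized to DMSO-treated high control; IC50, Hill slope and Imax fitted. Compounds were applied for 16 h (10 uM top, 5-fold steps, 8 doses) to an H1975 single clone carrying only exogenous Del19/C797S EGFR after sgRNA knockout of endogenous copies.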

[3] = molecular target: T2, p-EGFR L858R (BaF3-L858R cells) (Homo sapiens, UniProt P00533, L858R); assay: Cell p-EGFR inhibition assay, HTRF, BaF3-L858R cells; conditions: 16 h treatment; for Imax (%): maximum percentage of pEGFR inhibition; for IC50: pEGFR inhibition
T2 construct: host or cells: BaF3
In short: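 BaF3-L858R cells treated 16 h at 37 °C, 5% CO2 with compound from 10 uM top, 5-fold dilutions, 8 doses, in 0.1% DMSO medium. Lysates read overnight by HTRF p-EGFR antibodies; IC50 fitted to four-parameter curve against DMSO high control.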

[4] = molecular target: T3, EGFR L858R (BaF3-L858R cells) (Homo sapiens, UniProt P00533, L858R); assay: Cell degradation of EGFR, HTRF assay, BaF3-L858R cells; conditions: 16 h treatment; for DC50: EGFR degradation; for Dmax: maximum percentage of degradation
T3 construct: host or cells: BaF3
In short: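 BaF3-L858R cells treated 16 h at 37° C, 5% CO2 with compound (top 10 uM final, 5-fold, 8 doses, 0.1% DMSO). DC50 from four-parameter fit; Dmax is maximum percent degradation.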

In the case of Cc1cc2cc(n1)-c1c(C)nn(C)c1OC[C@H]1CC[C@H](C1)CN1/C(=N/C2=O)Nc2ccc(N3CCN(CC4CCN(c5cc(F)c([C@H]6CCC(=O)NC6=O)c(F)c5)CC4)CC3)cc21 [Example 182, (R)-3-(2,6-difluoro-4-(4-((4-((7^1R,7^3S,E)-1^1,1^3,2^6-trimethyl-3-oxo-5^2,5^3-dihydro-1^1H,5^1H-9-oxa-4-aza-5(2,1)-benzo[d]imidazola-2(2,4)-pyridina-1(4,5)-pyrazola-7(1,3)-cyclopentanacyclononaphane-5^6-yl)piperazin-1-yl)methyl)piperidin-1-yl)phenyl)piperidine-2,6-dione], the DC50 [1] is reported as 1.39 nM, the Dmax [1] is reported as 79.8% and the “Imax (%)” value [2] is reported as 99.73%. The IC50 [2] was 2.38 nM, the “Imax (%)” value [3] was 100.38% and the IC50 [3] was 2.21 nM. It also gave a DC50 [4] of 21.8 nM and a Dmax [4] of 89.2%.
Cc1cc2cc(n1)-c1c(C)nn(C)c1OC[C@H]1CC[C@H](C1)CN1/C(=N/C2=O)Nc2ccc(N3CCN(CCC4CCN(c5cc(F)c([C@H]6CCC(=O)NC6=O)c(F)c5)CC4)CC3)cc21 [Example 183, (R)-3-(2,6-difluoro-4-(4-(2-(4-((7^1R,7^3S,E)-1^1,1^3,2^6-trimethyl-3-oxo-5^2,5^3-dihydro-1^1H,5^1H-9-oxa-4-aza-5(2,1)-benzo[d]imidazola-2(2,4)-pyridina-1(4,5)-pyrazola-7(1,3)-cyclopentanacyclononaphane-5^6-yl)piperazin-1-yl)ethyl)piperidin-1-yl)phenyl)piperidine-2,6-dione] was tested, and the DC50 [1] was 5.83 nM, the Dmax [1] was 91.2% and the “Imax (%)” value [2] was 99.41%. For the same compound, the IC50 [2] was 7.32 nM, the “Imax (%)” value [3] was 98.21% and the IC50 [3] was 5.32 nM. The DC50 [4] was 5.3 nM and the Dmax [4] was 91.6%.
For Cc1cc2cc(n1)-c1c(C)nn(C)c1OC[C@H]1CC[C@H](C1)CN1/C(=N/C2=O)Nc2ccc(N3CCN(C[C@@H]4CCN(c5cc(F)c([C@H]6CCC(=O)NC6=O)c(F)c5)C4)CC3)cc21 [Example 184, (R)-3-(2,6-difluoro-4-((S)-3-((4-((7^1R,7^3S,E)-1^1,1^3,2^6-trimethyl-3-oxo-5^2,5^3-dihydro-1^1H,5^1H-9-oxa-4-aza-5(2,1)-benzo[d]imidazola-2(2,4)-pyridina-1(4,5)-pyrazola-7(1,3)-cyclopentanacyclononaphane-5^6-yl)piperazin-1-yl)methyl)pyrrolidin-1-yl)phenyl)piperidine-2,6-dione], the DC50 [1] was 3.16 nM, the Dmax [1] was 89.3% and the “Imax (%)” value [2] was 100.52%. The IC50 [2] was 2.48 nM, the “Imax (%)” value [3] was 91.67% and the IC50 [3] was 1.25 nM. It also gave a DC50 [4] of 4.99 nM and a Dmax [4] of 90.1%.
In the case of CC[C@@H]1CN(c2ccc3c(c2)N2C[C@@H]4CC[C@H](COc5c(c(C)nn5C)-c5cc(cc(C)n5)C(=O)/N=C/2N3)C4)CCN1C1CCN(c2cc(F)c([C@H]3CCC(=O)NC3=O)c(F)c2)CC1 [Example 188, (R)-3-(4-(4-((R)-2-ethyl-4-((7^1R,7^3S,E)-1^1,1^3,2^6-trimethyl-3-oxo-5^2,5^3-dihydro-1^1H,5^1H-9-oxa-4-aza-5(2,1)-benzo[d]imidazola-2(2,4)-pyridina-1(4,5)-pyrazola-7(1,3)-cyclopentanacyclononaphane-5^6-yl)piperazin-1-yl)piperidin-1-yl)-2,6-difluorophenyl)piperidine-2,6-dione], the DC50 [1] is reported as 3.78 nM, the Dmax [1] is reported as 84.9% and the “Imax (%)” value [2] is reported as 99.79%. The IC50 [2] was 1.95 nM, the “Imax (%)” value [3] was 90.67% and the IC50 [3] was < 0.128 nM. It also gave a DC50 [4] of 4.2 nM and a Dmax [4] of 93.2%.
For CC[C@H]1CN(c2ccc3c(c2)N2C[C@@H]4CC[C@H](COc5c(c(C)nn5C)-c5cc(cc(C)n5)C(=O)/N=C/2N3)C4)CCN1C1CCN(c2cc(F)c([C@H]3CCC(=O)NC3=O)c(F)c2)CC1 [Example 189, (R)-3-(4-(4-((S)-2-ethyl-4-((7^1R,7^3S,E)-1^1,1^3,2^6-trimethyl-3-oxo-5^2,5^3-dihydro-1^1H,5^1H-9-oxa-4-aza-5(2,1)-benzo[d]imidazola-2(2,4)-pyridina-1(4,5)-pyrazola-7(1,3)-cyclopentanacyclononaphane-5^6-yl)piperazin-1-yl)piperidin-1-yl)-2,6-difluorophenyl)piperidine-2,6-dione], the DC50 [1] was 2.38 nM, the Dmax [1] was 90.2% and the “Imax (%)” value [2] was 100.03%. The IC50 [2] was 2.11 nM, the “Imax (%)” value [3] was 92.5% and the IC50 [3] was < 0.128 nM. The DC50 [4] was 4.4 nM and the Dmax [4] was 87.6%.
With Cc1cc2cc(n1)-c1c(C)nn(C)c1OC[C@H]1CC[C@H](C1)CN1/C(=N/C2=O)Nc2ccc(N3CCN(C4CCN(c5cc(F)c([C@H]6CCC(=O)NC6=O)c(F)c5)CC4)C[C@H]3C)cc21 [Example 190, (R)-3-(2,6-difluoro-4-(4-((R)-3-methyl-4-((7^1R,7^3S,E)-1^1,1^3,2^6-trimethyl-3-oxo-5^2,5^3-dihydro-1^1H,5^1H-9-oxa-4-aza-5(2,1)-benzo[d]imidazola-2(2,4)-pyridina-1(4,5)-pyrazola-7(1,3)-cyclopentanacyclononaphane-5^6-yl)piperazin-1-yl)piperidin-1-yl)phenyl)piperidine-2,6-dione] the DC50 [1] was 1.69 nM, the Dmax [1] was 94.9% and the “Imax (%)” value [2] was 100.67%. The IC50 [2] was 1.2 nM, the “Imax (%)” value [3] was 91.5% and the IC50 [3] was 0.58 nM. The DC50 [4] was 3.11 nM and the Dmax [4] was 88.2%.
Cc1cc2cc(n1)-c1c(C)nn(C)c1OC[C@H]1CC[C@H](C1)CN1/C(=N/C2=O)Nc2ccc(N3C[C@H](C)N(C4CCN(c5cc(F)c([C@H]6CCC(=O)NC6=O)c(F)c5)CC4)C[C@H]3C)cc21 [Example 191, (R)-3-(4-(4-((2S,5R)-2,5-dimethyl-4-((7^1R,7^3S,E)-1^1,1^3,2^6-trimethyl-3-oxo-5^2,5^3-dihydro-1^1H,5^1H-9-oxa-4-aza-5(2,1)-benzo[d]imidazola-2(2,4)-pyridina-1(4,5)-pyrazola-7(1,3)-cyclopentanacyclononaphane-5^6-yl)piperazin-1-yl)piperidin-1-yl)-2,6-difluorophenyl)piperidine-2,6-dione] was tested, and the DC50 [1] was 0.73 nM, the Dmax [1] was 88.7% and the “Imax (%)” value [2] was 99.88%. The IC50 [2] was 0.769 nM, the “Imax (%)” value [3] was 90.84% and the IC50 [3] was 0.528 nM. The DC50 [4] was 2.94 nM and the Dmax [4] was 89.3%.
With Cc1cc2cc(n1)-c1c(C)nn(C)c1OC[C@H]1CC[C@H](C1)CN1/C(=N/C2=O)Nc2ccc(N3CCN(C4CCN(c5cc(F)c([C@H]6CCC(=O)NC6=O)c(F)c5)CC4)[C@H](C)C3)cc21 [Example 192, (R)-3-(2,6-difluoro-4-(4-((R)-2-methyl-4-((7^1R,7^3S,E)-1^1,1^3,2^6-trimethyl-3-oxo-5^2,5^3-dihydro-1^1H,5^1H-9-oxa-4-aza-5(2,1)-benzo[d]imidazola-2(2,4)-pyridina-1(4,5)-pyrazola-7(1,3)-cyclopentanacyclononaphane-5^6-yl)piperazin-1-yl)piperidin-1-yl)phenyl)piperidine-2,6-dione] the DC50 [1] was 1.01 nM, the Dmax [1] was 88.8% and the “Imax (%)” value [2] was 99.96%. For the same compound, the IC50 [2] was 1.39 nM, the “Imax (%)” value [3] was 89.34% and the IC50 [3] was 1.53 nM. For the same compound, the DC50 [4] was 2.42 nM and the Dmax [4] was 87.9%.
Cc1cc2cc(n1)-c1c(C)nn(C)c1OC[C@H]1CC[C@H](C1)CN1/C(=N/C2=O)Nc2ccc(N3CC4CCC3CN4C3CCN(c4cc(F)c([C@H]5CCC(=O)NC5=O)c(F)c4)CC3)cc21 [Example 193, (3R)-3-(2,6-difluoro-4-(4-(5-((7^1R,7^3S,E)-1^1,1^3,2^6-trimethyl-3-oxo-5^2,5^3-dihydro-1^1H,5^1H-9-oxa-4-aza-5(2,1)-benzo[d]imidazola-2(2,4)-pyridina-1(4,5)-pyrazola-7(1,3)-cyclopentanacyclononaphane-5^6-yl)-2,5-diazabicyclo[2.2.2]octan-2-yl)piperidin-1-yl)phenyl)piperidine-2,6-dione] was tested, and the DC50 [1] was 0.76 nM, the Dmax [1] was 70.8% and the “Imax (%)” value [2] was 100.43%. For the same compound, the IC50 [2] was 2.74 nM, the “Imax (%)” value [3] was 101.04% and the IC50 [3] was 2.35 nM. For the same compound, the DC50 [4] was 7.4 nM and the Dmax [4] was 76.2%.
Cc1cc2cc(n1)-c1c(C)nn(C)c1OC[C@H]1CC[C@H](C1)CN1/C(=N/C2=O)Nc2ccc(N3CCN(C4CCN(c5cc(F)c([C@H]6CCC(=O)NC6=O)c(F)c5)CC4)C[C@@H]3C)cc21 [Example 195, (R)-3-(2,6-difluoro-4-(4-((S)-3-methyl-4-((7^1R,7^3S,E)-1^1,1^3,2^6-trimethyl-3-oxo-5^2,5^3-dihydro-1^1H,5^1H-9-oxa-4-aza-5(2,1)-benzo[d]imidazola-2(2,4)-pyridina-1(4,5)-pyrazola-7(1,3)-cyclopentanacyclononaphane-5^6-yl)piperazin-1-yl)piperidin-1-yl)phenyl)piperidine-2,6-dione] was tested, and the DC50 [1] was 1.13 nM, the Dmax [1] was 93.9% and the “Imax (%)” value [2] was 99.96%. For the same compound, the IC50 [2] was 1.44 nM, the “Imax (%)” value [3] was 90.34% and the IC50 [3] was < 0.128 nM. It also gave a DC50 [4] of 1.83 nM and a Dmax [4] of 90.9%.
